Values quoted from earlier work as cited in patent US9943479B2, “Injectable liquid paracetamol formulation” (GENFARMA LABORATORIO S.L., priority 2006, dated 2018).
In brackets after ≈: the same amount, converted by molar mass. Read-outs that look alike come from different tables or passages of the source.

Q: For CC(=O)Nc1ccc(O)cc1 [paracetamol, n-acetyl-4-aminophenol], which “solubility in aqueous medium” value (4° C.) is on record?
A: Its value is about 8000 µg/mL (≈ 52.9 mM).

Q: What about the “solubility in aqueous medium” value (20° C.) of the same compound?
A: Its value is about 12000 µg/mL (≈ 79.4 mM).
